The results in this text go back to ChEMBL document CHEMBL5029157, “Identification of unprecedented ATP-competitive choline kinase inhibitors” (Bioorg Med Chem Lett, 2021).

Data set [1] is described as follows: Solubility of compound at pH 7. The format is physicochemical. Particulars: buffer.
The nature of data set [2]: Metabolic stability in human liver microsomes assessed as intrinsic clearance. To be noted: read-out: CLH. Format: ADME, Microsome. A general note: Liver microsomes are a subcellular fraction often used to study metabolism.
Data set [3] is described as follows: Metabolic stability in rat hepatocyte assessed as intrinsic clearance. Format: ADME, tissue-based. Particulars: hepatocytes, read-out: CLH.
Data set [4] concerns the target Choline/ethanolamine kinase (Homo sapiens, UniProt Q9Y259).

Converted amounts (≈) assume the structure as drawn. A value given as a limit tells only on which side of the number the result lay.

Choline/ethanolamine kinase, sequence (Q9Y259 whole entry): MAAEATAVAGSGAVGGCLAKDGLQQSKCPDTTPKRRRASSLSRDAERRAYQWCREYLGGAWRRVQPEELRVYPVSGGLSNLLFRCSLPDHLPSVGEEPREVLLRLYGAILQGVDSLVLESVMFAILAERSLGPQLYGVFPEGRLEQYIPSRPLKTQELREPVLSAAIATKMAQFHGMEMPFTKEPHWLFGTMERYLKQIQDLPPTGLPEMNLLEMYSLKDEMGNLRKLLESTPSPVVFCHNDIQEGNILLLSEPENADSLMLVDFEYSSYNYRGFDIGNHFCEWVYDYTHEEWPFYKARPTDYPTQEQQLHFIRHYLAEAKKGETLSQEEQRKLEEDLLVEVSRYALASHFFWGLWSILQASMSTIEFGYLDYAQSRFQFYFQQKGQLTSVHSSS

The term solubility denotes how much of the substance goes into solution per volume. Read a high solubility as much dissolved substance. Molecule `COc1ccc2nc(NC(=O)[C@H]3CC[C@@H](n4cnc5c(N)nc(Cl)nc54)CC3)sc2c1` registered a solubility in data set [1] of 1 µM (≈ 0.458 µg/mL).
Molecule `CN1CCc2nc(NC(=O)[C@H]3CC[C@@H](n4cnc5c(N)nc(F)nc54)CC3)sc2C1` showed a solubility in data set [1] of 105 µM (≈ 45.2 µg/mL). Also, the CLint scaled in data set [2] was determined as 13 mL/min/kg; in data set [3], 22 mL/min/kg.
For `Nc1nc(Cl)nc2c1ncn2[C@H]1CC[C@@H](C(=O)Nc2nc3ccc(O)cc3s2)CC1`, in data set [1], the solubility is 3 µM (≈ 1.33 µg/mL).
Regarding `Nc1nc(Cl)nc2c1ncn2[C@H]1CC[C@@H](C(=O)Nc2nc3c(F)cc(F)cc3s2)CC1`, in data set [1], the concentration in solution (solubility) came to 1 µM (≈ 0.464 µg/mL).
Molecule `CC(C)N1CCc2nc(NC(=O)[C@H]3CC[C@@H](n4cnc5c(N)nc(Cl)nc54)CC3)sc2C1` came in with a solubility in data set [1] of 73 µM (≈ 34.7 µg/mL).
The same measure, in the same setting: in the case of `Nc1nc(Cl)nc2c1ncn2[C@H]1CC[C@@H](C(=O)Nc2nc3c(s2)COCC3)CC1` it was 4 µM (≈ 1.74 µg/mL); in that of `NC(=O)Cc1ccc2nc(NC(=O)[C@H]3CC[C@@H](n4cnc5c(N)nc(Cl)nc54)CC3)sc2c1`, 2 µM (≈ 0.97 µg/mL); in that of `NC(=O)c1ccc2nc(NC(=O)[C@H]3CC[C@@H](n4cnc5c(N)nc(Cl)nc54)CC3)sc2c1`, 3 µM (≈ 1.41 µg/mL).
A word on the IC50: it is the concentration that inhibits the measured activity by half. Low readings indicate higher potency, high ones lower potency. In the case of `COc1cccc(NC(=O)[C@H]2CC[C@@H](n3cnc4c(N)nc(-c5ccc6cn[nH]c6c5)nc43)CC2)c1`, the IC50 in data set [4] was > 10 µM.
On the same count and under the same terms, in the case of `COc1cccc(NC(=O)[C@H]2CC[C@@H](n3cnc4c(N)nc(N5CCN(C)CC5)nc43)CC2)c1` it was > 10 µM.
Take `Cc1csc(NC(=O)[C@H]2CC[C@@H](n3cnc4c(N)nc(Cl)nc43)CC2)n1`: the concentration in solution in data set [1] (solubility) came to 15 µM (≈ 5.88 µg/mL). The values for the CLint scaled in data set [2] and in data set [3] were 12 mL/min/kg and 34 mL/min/kg, respectively.
Take `Nc1nc(Cl)nc2c1ncn2[C@H]1CC[C@@H](C(=O)Nc2nc3ccc(F)cc3s2)CC1`: the solubility in data set [1] was determined as 3 µM (≈ 1.34 µg/mL).
On the same count and under the same terms, in the case of `Cc1cnc(NC(=O)[C@H]2CC[C@@H](n3cnc4c(N)nc(Cl)nc43)CC2)s1` it was 5 µM (≈ 1.96 µg/mL).
Turning to `COc1cccc(NC(=O)[C@H]2CC[C@@H](n3cnc4c(N)nc(-c5ccc6[nH]ncc6c5)nc43)CC2)c1`, the IC50 in data set [4] is > 10 µM.
`Nc1nc(Cl)nc2c1ncn2[C@H]1CC[C@@H](C(=O)Nc2nc3c(O)cccc3s2)CC1` displayed a solubility in data set [1] of 4 µM (≈ 1.78 µg/mL).
As to `Nc1nc(Cl)nc2c1ncn2[C@H]1CC[C@@H](C(=O)Nc2nc3c(s2)CS(=O)(=O)CC3)CC1`, the solubility in data set [1] was found to be 37 µM (≈ 17.8 µg/mL).
`Nc1nc(Cl)nc2c1ncn2[C@H]1CC[C@@H](C(=O)Nc2nc3c(s2)CNCC3)CC1` came in with a solubility in data set [1] of 153 µM (≈ 66.2 µg/mL).
On to `Nc1ncnc2c1ncn2[C@H]1CC[C@@H](C(=O)Nc2ccc(S(=O)(=O)C(F)(F)F)cc2)CC1`, for which the IC50 in data set [4] is > 10 µM.
In the case of `Nc1nc(Cl)nc2c1ncn2[C@H]1CC[C@@H](C(=O)Nc2nc(C(F)(F)F)cs2)CC1`, in data set [1], the solubility came out at 9 µM (≈ 4.01 µg/mL).
`NC(=O)Cc1csc(NC(=O)[C@H]2CC[C@@H](n3cnc4c(N)nc(Cl)nc43)CC2)n1` showed a solubility in data set [1] of 6 µM (≈ 2.61 µg/mL).
`COc1cccc2sc(NC(=O)[C@H]3CC[C@@H](n4cnc5c(N)nc(Cl)nc54)CC3)nc12` had a solubility in data set [1] of 2 µM (≈ 0.916 µg/mL).
In turn, `CN1CCc2nc(NC(=O)[C@H]3CC[C@@H](n4cnc5c(N)nc(Cl)nc54)CC3)sc2C1` displayed a solubility in data set [1] of 171 µM (≈ 76.4 µg/mL). Further, the CLint scaled in data set [2] was 33 mL/min/kg; in data set [3], 49 mL/min/kg.
For `CS(=O)(=O)c1ccc(NC(=O)[C@H]2CC[C@@H](n3cnc4c(N)ncnc43)CC2)cc1`, the IC50 in data set [4] is > 10 µM.
With `Cc1csc(NC(=O)[C@H]2CC[C@@H](n3cnc4c(N)nc(F)nc43)CC2)n1`, in data set [1], the concentration in solution (solubility) was 2 µM (≈ 0.751 µg/mL). Also, the figures for the CLint scaled in data set [2] and in data set [3] were 12 mL/min/kg and 34 mL/min/kg, respectively.
Molecule `Cl.Nc1nc(Cl)nc2c1ncn2[C@H]1CC[C@@H](C(=O)Nc2nc3c(s2)CN(C2CC2)CC3)CC1` displayed a solubility in data set [1] of 13 µM.
Turning to `Nc1ncnc2c1ncn2[C@H]1CC[C@@H](C(=O)Nc2cccc(S(=O)(=O)C(F)(F)F)c2)CC1`, the IC50 in data set [4] is > 10 µM.
As to `CC1(C)Cc2nc(NC(=O)[C@H]3CC[C@@H](n4cnc5c(N)nc(F)nc54)CC3)sc2C(C)(C)N1`, the solubility in data set [1] stood at 200 µM (≈ 94.5 µg/mL). For the same molecule, the CLint scaled stood at 56 mL/min/kg in data set [2] and 84 mL/min/kg in data set [3].
For the molecule `NC(=O)Cc1cnc(NC(=O)[C@H]2CC[C@@H](n3cnc4c(N)nc(Cl)nc43)CC2)s1`, in data set [1], the concentration in solution (solubility) was 97 µM (≈ 42.2 µg/mL).
In the case of `CC1(C)Cc2nc(NC(=O)[C@H]3CC[C@@H](n4cnc5c(N)nc(Cl)nc54)CC3)sc2C(C)(C)N1`, the solubility in data set [1] is 119 µM (≈ 58.2 µg/mL). Besides, the CLint scaled in data set [2] was found to be 78 mL/min/kg; in data set [3], 97 mL/min/kg.
The molecule `Nc1nc(Cl)nc2c1ncn2[C@H]1CC[C@@H](C(=O)Nc2nc(-c3ccccc3)cs2)CC1` came in with a solubility in data set [1] of 5 µM (≈ 2.27 µg/mL).
